± gives the expanded uncertainty stated by the source.
Assay: excess molar enthalpy (molar enthalpy of mixing); xn = mol fraction of the nth substance listed
Settings: 298.15 K, 101 kPa, Liquid, Flow calorimetry

C1CCCCC1 [cyclohexane] + CCCCO
Settings | excess molar enthalpy [kJ/mol]
x1 = 0.0503 | 0.0683 ± 0.0028
x1 = 0.0998 | 0.145 ± 0.003
x1 = 0.1502 | 0.217 ± 0.0033
x1 = 0.1998 | 0.287 ± 0.0037
x1 = 0.2502 | 0.35 ± 0.004
x1 = 0.2997 | 0.408 ± 0.0043
x1 = 0.35 | 0.4616 ± 0.0046
x1 = 0.4002 | 0.5105 ± 0.0049
x1 = 0.4503 | 0.5525 ± 0.0052
x1 = 0.5003 | 0.5873 ± 0.0054
x1 = 0.5501 | 0.6134 ± 0.0056
x1 = 0.5997 | 0.6295 ± 0.0057
x1 = 0.6501 | 0.6346 ± 0.0057
x1 = 0.7002 | 0.6267 ± 0.0056
x1 = 0.7501 | 0.6047 ± 0.0055
x1 = 0.7996 | 0.5671 ± 0.0054
x1 = 0.85 | 0.513 ± 0.0052
x1 = 0.9 | 0.439 ± 0.0051
x1 = 0.9496 | 0.334 ± 0.0048

From the NIST ThermoML archive (doi:10.1021/je800751m)
